According to article PMC9811578 (Chemical Science, 2022):
Non-standard residues stand in square brackets, D forms with d. Residues, ends and D or L forms follow the SMILES beside them.

What was measured:
[1] = R. Strutt and coworkers; cited from earlier work
Horizon-LBA = format: in vitro ADME; conditions: not told
PAMPA = format: in vitro ADME

Compound | permeability coefficient (DIB of DOPC, UV detector) [1] | Papp (Horizon-LBA) [×10⁻⁶ cm/s] | Papp (PAMPA) [×10⁻⁶ cm/s]
Cn1c(=O)c2c(ncn2C)n(C)c1=O [Caffeine] | 2.81 ± 0.0920 × 10^−4 cm s^−1 | – | –
COc1ccc(C[C@@H]2NC(=O)[C@@H](CC(C)C)NC(=O)[C@H](C(C)C)NC(=O)[C@H](CC(C)C)NC(=O)[C@@H](CC(C)C)NC(=O)[C@H]3CCCN3C2=O)cc1 [Peptide 1] (cyclo(LV[dL]Y(Me)[dP][dL])) | – | 300 ± 100 | 16.5 ± 0.9
